Measured values as given in article PMC8319832, “Fine-Tuning of Alkaline Residues on the Hydrophilic Face Provides a Non-toxic Cationic α-Helical Antimicrobial Peptide Against Antibiotic-Resistant ESKAPE Pathogens” (Frontiers in Microbiology, 2021).
Converted amounts (≈) assume the structure as drawn. Where a SMILES comes first, the peptide text is derived from it.

What was measured:
P. aeruginosa ATCC 27853 = assay: MIC, broth dilution; type: cell-based, Pseudomonas aeruginosa; settings: CLSI broth dilution, MHB, 37°C, 20 h, OD630, at least three repeats; standard strain
Protocol: (§1) All experiments were repeated at least three times.
(§2) To study the influence of physiological ions on the antimicrobial activities of the peptides, The MICs of the peptides were also determined against the standard bacterial strains cultured in MHB containing various salts at their physiological concentrations (150 mM NaCl, 4.5 mM KCl, 1 mM MgCl2, 2 mM CaCl2, 6 μM NH4HCO3, and 4 μM FeCl3) ([Ma et al., 2016]).

E. coli 2687 = assay: MIC, broth dilution; type: cell-based, Escherichia coli; settings: CLSI broth dilution, MHB, 37°C, 20 h, OD630, at least three repeats; clinical isolate, ESBL
Source text: as §1

E. coli ATCC35218 = assay: MIC, broth dilution; type: cell-based, Escherichia coli; settings: CLSI broth dilution, MHB, 37°C, 20 h, OD630, at least three repeats; standard strain
Source text: as §1

E. coli 2678 = assay: MIC, broth dilution; type: cell-based, Escherichia coli; settings: CLSI broth dilution, MHB, 37°C, 20 h, OD630, at least three repeats; clinical isolate, ESBL
Source text: as §1

S. aureus ATCC29213 = assay: MIC, broth dilution; type: cell-based, Staphylococcus aureus; settings: CLSI broth dilution, MHB, 6.25 × 10^5 cfu per ml, 37°C, 20 h, OD630, at least three repeats
Protocol: as §1, §2

E. faecium 898 = assay: MIC, broth dilution; type: cell-based, Enterococcus faecium; settings: CLSI broth dilution, MHB, 37°C, 20 h, OD630, at least three repeats; clinical isolate
Source text: as §1

[1] = test system: K. pneumoniae ATCC 700603; assay: MIC, broth dilution; type: cell-based, Klebsiella pneumoniae; settings: CLSI broth dilution, MHB, 37°C, 20 h, OD630, at least three repeats; standard strain
Protocol: as §1, §2

[2] = test system: human red blood cells (hRBCs); assay: Hemolytic activity determination; type: cell-based; settings: hRBCs in 0.9% sodium chloride, 37°C, 1 h, OD540, 1% Triton X-100 = 100%, three independent experiments
Protocol: Fresh human red blood cells (hRBCs) were collected in a sterile borosilicate glass tube covered with sodium citrate as the anticoagulating agent. […] Two-fold dilutions of the peptides were prepared in 0.9% sodium chloride to 100 μl and mixed with equal volumn of hRBC suspension to final peptide concentrations ranging from 12.5 to 200 μg ml^–1. After co-incubation at 37°C for 1 h, the samples were centrifuged (2,000 × g, 4°C, 20 min), and the supernatant (100 μl) was taken for optical density (OD540) measurements (Asample). The hRBCs assayed with 0.9% sodium chloride (Ablank) or 1% Triton X-100 (Apositive) were applied as 0% and 100% hemolysis, respectively. Three independent experiments were performed and the percent hemolysis was calculated according to the following equation ([Yin et al., 2012]; [Li et al., 2016]):
Hemolysis(%)=100*(Asample-Ablank)/(Apositive-Ablank)

E. faecalis ATCC 29212 = assay: MIC, broth dilution; type: cell-based; settings: CLSI broth dilution, MHB, 37°C, 20 h, OD630, at least three repeats; standard strain
Protocol: as §1, §2

P. aeruginosa 9014 = assay: MIC, broth dilution; type: cell-based, Pseudomonas aeruginosa; settings: CLSI broth dilution, MHB, 37°C, 20 h, OD630, at least three repeats; clinical isolate, CRE, MDR
Source text: as §1

P. aeruginosa 9042 = assay: MIC, broth dilution; type: cell-based, Pseudomonas aeruginosa; settings: CLSI broth dilution, MHB, 37°C, 20 h, OD630, at least three repeats; clinical isolate
Source text: as §1

S. aureus ATCC 25923 = assay: MIC, broth dilution; type: cell-based, Staphylococcus aureus; settings: CLSI broth dilution, MHB, 37°C, 20 h, OD630, at least three repeats; standard strain
Source text: as §1

S. aureus 9124 = assay: MIC, broth dilution; type: cell-based, Staphylococcus aureus; settings: CLSI broth dilution, MHB, 37°C, 20 h, OD630, at least three repeats; clinical isolate, MRSA
Source text: as §1

S. aureus 4188 = assay: MIC, broth dilution; type: cell-based, Staphylococcus aureus; settings: CLSI broth dilution, MHB, 37°C, 20 h, OD630, at least three repeats; clinical isolate, penicillin-resistant
Source text: as §1

S. aureus 1176 = assay: MIC, broth dilution; type: cell-based, Staphylococcus aureus; settings: CLSI broth dilution, MHB, 37°C, 20 h, OD630, at least three repeats; clinical isolate
Source text: as §1

E. coli ATCC25922 = assay: MIC, broth dilution; type: cell-based, Escherichia coli; settings: CLSI broth dilution, MHB, 6.25 × 10^5 cfu per ml, 37°C, 20 h, OD630, at least three repeats
A. baumannii ATCC 19606 = assay: MIC, broth dilution; type: cell-based, Acinetobacter baumannii; settings: CLSI broth dilution, MHB, 37°C, 20 h, OD630, at least three repeats; standard strain
Protocol: as §1, §2

S. epidermidis 888 = assay: MIC, broth dilution; type: cell-based; settings: CLSI broth dilution, MHB, 37°C, 20 h, OD630, at least three repeats; clinical isolate
Source text: as §1

S. epidermidis 6943 = assay: MIC, broth dilution; type: cell-based; settings: CLSI broth dilution, MHB, 37°C, 20 h, OD630, at least three repeats; clinical isolate, MRSE
Source text: as §1

S. epidermidis 9092 = assay: MIC, broth dilution; type: cell-based; settings: CLSI broth dilution, MHB, 37°C, 20 h, OD630, at least three repeats; clinical isolate, MRSE
Source text: as §1

E. faecalis 901 = assay: MIC, broth dilution; type: cell-based; settings: CLSI broth dilution, MHB, 37°C, 20 h, OD630, at least three repeats; clinical isolate
Source text: as §1

K. pneumoniae 9126 = assay: MIC, broth dilution; type: cell-based, Klebsiella pneumoniae; settings: CLSI broth dilution, MHB, 37°C, 20 h, OD630, at least three repeats; clinical isolate, CRE
Source text: as §1

A. baumannii = settings: summary of Table 4
Protocol: The MIC determination was performed using the broth dilution method according to the guidelines of the Clinical and Laboratory Standards Institute (CLSI) ([Cao et al., 2012]; [Mourtada et al., 2019]). Briefly, the bacterial cells were incubated in Mueller-Hinton broth (MHB, Oxoid) at 37°C and 150 rpm, after overnight incubation, the bacteria were transferred to new broth until the exponential phase of growth (OD630 = 0.4). After that, the bacteria were diluted with fresh MHB to 160 μl and prepared in a sterile 96-well polypropylene plate to achieve a final concentration of 6.25 × 10^5 colony forming units (cfu) per ml. Two-fold dilutions of the peptides in 0.9% sodium chloride (40 μl) were added to each well to achieve the final peptide concentrations ranging from 1.25 to 80 μg ml^–1. […] All experiments were repeated at least three times.

A. baumannii 13012 = assay: MIC, broth dilution; type: cell-based, Acinetobacter baumannii; settings: CLSI broth dilution, MHB, 37°C, 20 h, OD630, at least three repeats; clinical isolate, CRE, MDR
Source text: as §1

A. baumannii 906 = assay: MIC, broth dilution; type: cell-based, Acinetobacter baumannii; settings: CLSI broth dilution, MHB, 37°C, 20 h, OD630, at least three repeats; clinical isolate, CRE, MDR
Source text: as §1

A. baumannii 13079 = assay: MIC, broth dilution; type: cell-based, Acinetobacter baumannii; settings: CLSI broth dilution, MHB, 37°C, 20 h, OD630, at least three repeats; clinical isolate, CRE, MDR
Source text: as §1

A. baumannii 9068 = assay: MIC, broth dilution; type: cell-based, Acinetobacter baumannii; settings: CLSI broth dilution, MHB, 37°C, 20 h, OD630, at least three repeats; clinical isolate, CRE, MDR
Source text: as §1

[3] = test system: ESBL-producing E. coli, CRE- and MDR P. aeruginosa, CRE- and MDR A. baumannii; assay: MIC, summary over resistant gram-negative strains; type: cell-based; settings: summary of Table 4
Source text: as §1

Row | Structure (SMILES) | MIC (P. aeruginosa ATCC 27853) | MIC (E. coli 2687) | MIC (E. coli ATCC35218) | MIC (E. coli 2678) | MIC (S. aureus ATCC29213) | MIC (E. faecium 898) | MIC [1] | MIC (E. faecalis ATCC 29212) | MIC (P. aeruginosa 9014) | MIC (P. aeruginosa 9042) | MIC (S. aureus ATCC 25923) | MIC (S. aureus 9124) | MIC (S. aureus 4188) | MIC (S. aureus 1176) | MIC (E. coli ATCC25922) | MIC (A. baumannii ATCC 19606) | MIC (S. epidermidis 888) | MIC (S. epidermidis 6943) | MIC (S. epidermidis 9092) | MIC (E. faecalis 901) | further results
1 | CC[C@H](C)[C@H](NC(=O)[C@H](C)NC(=O)CNC(=O)[C@@H](NC(=O)[C@@H](N)Cc1ccccc1)[C@@H](C)CC)C(=O)N[C@@H](C)C(=O)N[C@@H](CCCNC(=N)N)C(=O)N[C@@H](CC(C)C)C(=O)N[C@@H](CC(C)C)C(=O)N[C@@H](CO)C(=O)N[C@@H](CCCCN)C(=O)N[C@H](C(=O)N[C@@H](Cc1ccccc1)C(N)=O)[C@@H](C)CC [BmKn2] (H-FIGAIARLLSKIF-NH2) | >80 mg/L | >80 mg/L | >80 mg/L | >80 mg/L | 10 mg/L (≈ 6.91 µM) | 10 mg/L (≈ 6.91 µM) | >80 mg/L | 10 mg/L (≈ 6.91 µM) | >80 mg/L | >80 mg/L | 5 mg/L (≈ 3.45 µM) | 2.5 mg/L (≈ 1.73 µM) | 5 mg/L (≈ 3.45 µM) | 2.5 mg/L (≈ 1.73 µM) | > 80 mg/L | 10 mg/L (≈ 6.91 µM) | 5 mg/L (≈ 3.45 µM) | 5 mg/L (≈ 3.45 µM) | 5 mg/L (≈ 3.45 µM) | 10 mg/L (≈ 6.91 µM) | percent hRBC hemolysis ([2]; peptide 25 μg ml^–1): 91.8%; MIC (K. pneumoniae 9126): >80 mg/L; MIC against A. baumannii (A. baumannii): 5–10 μg ml^–1; MIC (A. baumannii 13012): 10 mg/L (≈ 6.91 µM); MIC (A. baumannii 906): 10 mg/L (≈ 6.91 µM); MIC (A. baumannii 13079): 10 mg/L (≈ 6.91 µM); MIC (A. baumannii 9068): 10 mg/L (≈ 6.91 µM)
2 | CC[C@H](C)[C@H](NC(=O)[C@H](CCCNC(=N)N)NC(=O)[C@H](CCCCN)NC(=O)[C@@H](NC(=O)[C@@H](N)Cc1ccccc1)[C@@H](C)CC)C(=O)N[C@@H](C)C(=O)N[C@@H](CCCNC(=N)N)C(=O)N[C@@H](CC(C)C)C(=O)N[C@@H](CC(C)C)C(=O)N[C@@H](CCCNC(=N)N)C(=O)N[C@@H](CCCCN)C(=O)N[C@H](C(=O)N[C@@H](Cc1ccccc1)C(N)=O)[C@@H](C)CC [BmKn2-7] (H-FIKRIARLLRKIF-NH2) | 10 mg/L (≈ 5.98 µM) | 10 mg/L (≈ 5.98 µM) | 10 mg/L (≈ 5.98 µM) | 20 mg/L (≈ 12 µM) | 5 mg/L (≈ 2.99 µM) | 5 mg/L (≈ 2.99 µM) | 10 mg/L (≈ 5.98 µM) | 5 mg/L (≈ 2.99 µM) | 10 mg/L (≈ 5.98 µM) | 20 mg/L (≈ 12 µM) | 5 mg/L (≈ 2.99 µM) | 5 mg/L (≈ 2.99 µM) | 5 mg/L (≈ 2.99 µM) | 5 mg/L (≈ 2.99 µM) | 10 mg/L (≈ 5.98 µM) | 5 mg/L (≈ 2.99 µM) | 5 mg/L (≈ 2.99 µM) | 5 mg/L (≈ 2.99 µM) | 5 mg/L (≈ 2.99 µM) | 5 mg/L (≈ 2.99 µM) | percent hRBC hemolysis ([2]; peptide 25 μg ml^–1): 6.9%; percent hRBC hemolysis ([2]; peptide 100 μg ml^–1): 41.0%; MIC (K. pneumoniae 9126): 10 mg/L (≈ 5.98 µM); MIC (A. baumannii 13012): 5 mg/L (≈ 2.99 µM); MIC (A. baumannii 906): 5 mg/L (≈ 2.99 µM); MIC (A. baumannii 13079): 2.5 mg/L (≈ 1.49 µM); MIC (A. baumannii 9068): 5 mg/L (≈ 2.99 µM)
3 | CC[C@H](C)[C@H](NC(=O)[C@H](CCCNC(=N)N)NC(=O)[C@H](CCCNC(=N)N)NC(=O)[C@@H](NC(=O)[C@@H](N)Cc1ccccc1)[C@@H](C)CC)C(=O)N[C@@H](C)C(=O)N[C@@H](CCCNC(=N)N)C(=O)N[C@@H](CC(C)C)C(=O)N[C@@H](CC(C)C)C(=O)N[C@@H](CCCNC(=N)N)C(=O)N[C@@H](CCCNC(=N)N)C(=O)N[C@H](C(=O)N[C@@H](Cc1ccccc1)C(N)=O)[C@@H](C)CC [BmKn2-7R] (H-FIRRIARLLRRIF-NH2) | 5 mg/L (≈ 2.89 µM) | 10 mg/L (≈ 5.78 µM) | 10 mg/L (≈ 5.78 µM) | 10 mg/L (≈ 5.78 µM) | 5 mg/L (≈ 2.89 µM) | 2.5 mg/L (≈ 1.45 µM) | 5 mg/L (≈ 2.89 µM) | 10 mg/L (≈ 5.78 µM) | 2.5 mg/L (≈ 1.45 µM) | 5 mg/L (≈ 2.89 µM) | 5 mg/L (≈ 2.89 µM) | 5 mg/L (≈ 2.89 µM) | 5 mg/L (≈ 2.89 µM) | 5 mg/L (≈ 2.89 µM) | 10 mg/L (≈ 5.78 µM) | 2.5 mg/L (≈ 1.45 µM) | 2.5 mg/L (≈ 1.45 µM) | 5 mg/L (≈ 2.89 µM) | 5 mg/L (≈ 2.89 µM) | 5 mg/L (≈ 2.89 µM) | MIC against ESBL E. coli, CRE/MDR P. aeruginosa, CRE/MDR A. baumannii [3]: 2.5–10 μg ml^–1; percent hRBC hemolysis ([2]; peptide 100 μg ml^–1): 73.1%; MIC (K. pneumoniae 9126): 5 mg/L (≈ 2.89 µM); MIC (A. baumannii 13012): 2.5 mg/L (≈ 1.45 µM); MIC (A. baumannii 906): 2.5 mg/L (≈ 1.45 µM); MIC (A. baumannii 13079): 2.5 mg/L (≈ 1.45 µM); MIC (A. baumannii 9068): 5 mg/L (≈ 2.89 µM)
